Target: T1, GCase (Homo sapiens, UniProt P04062)
T1 construct: endogenous in cells; host or cells: HeLa cells
T1 sequence (P04062 40-536): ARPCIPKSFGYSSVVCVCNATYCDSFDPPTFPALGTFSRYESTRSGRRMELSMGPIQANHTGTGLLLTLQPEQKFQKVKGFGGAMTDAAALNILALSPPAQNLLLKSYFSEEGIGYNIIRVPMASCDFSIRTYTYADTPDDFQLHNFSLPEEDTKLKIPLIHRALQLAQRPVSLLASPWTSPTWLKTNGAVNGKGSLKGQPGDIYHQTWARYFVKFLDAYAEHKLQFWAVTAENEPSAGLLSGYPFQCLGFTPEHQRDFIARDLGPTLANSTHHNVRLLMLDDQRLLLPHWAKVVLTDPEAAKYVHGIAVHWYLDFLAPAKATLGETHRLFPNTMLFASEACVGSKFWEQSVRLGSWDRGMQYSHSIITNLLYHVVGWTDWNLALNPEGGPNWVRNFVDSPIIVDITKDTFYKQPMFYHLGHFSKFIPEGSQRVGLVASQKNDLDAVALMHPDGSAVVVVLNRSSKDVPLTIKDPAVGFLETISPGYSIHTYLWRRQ
Test: activation of GCase in a live cell PFB assay in HELA cells
Type: cell-based
Settings: EC50 given as range classes
Experimental: Exemplary compounds were evaluated for activation of GCase in a live cell PFB assay in HELA cells (essentially as described in Ysselstein et al., “LRRK2 kinase activity regulates lysosomal glucocerebrosidase in neurons derived from Parkinson's disease patients” Nature Communications (2019) 10:5570). […] EC50 ranges: A: <10 μM; B: >10-50 μM; C: >50-100 μM; D: >100 μM.

Row | EC50 [µM] | SMILES
1 | 10 to 50 | Cc1nn(CC(F)F)c2nc(N3CCC4(CCN(c5cc(C(F)(F)F)ccn5)C4)CC3)cnc12 [Compound 178, 8-[1-(2,2-difluoroethyl)-3-methyl-1H-pyrazolo[3,4-b]pyrazin-6-yl]-2-[4-(trifluoromethyl)pyridin-2-yl]-2,8-diazaspiro[4.5]decane]
2 | 10 to 50 | Cc1nc2cnn(CC(F)F)c2nc1N1CCC2(CCN(c3cc(C(F)(F)F)ccn3)C2)CC1 [Compound 179, 8-[1-(2,2-difluoroethyl)-5-methyl-1H-pyrazolo[3,4-b]pyrazin-6-yl]-2-[4-(trifluoromethyl)pyridin-2-yl]-2,8-diazaspiro[4.5]decane]
3 | 10 to 50 | FC(F)(F)c1ccnc(N2CCC3(CCN(c4cncc(-c5nncs5)n4)CC3)C2)c1 [Compound 180, 8-[6-(1,3,4-thiadiazol-2-yl)pyrazin-2-yl]-2-[4-(trifluoromethyl)pyridin-2-yl]-2,8-diazaspiro[4.5]decane]
4 | 10 to 50 | FC(F)Cn1ncc2ncc(N3CC4(CCN(c5cc(C(F)(F)F)ccn5)C4)C3)nc21 [Compound 181, 2-[1-(2,2-difluoroethyl)-1H-pyrazolo[3,4-b]pyrazin-6-yl]-6-[4-(trifluoromethyl)pyridin-2-yl]-2,6-diazaspiro[3.4]octane]
5 | < 10 | FC(F)Cn1ncc2ncc(N3CC4(CCN(c5ccc(C(F)(F)F)cn5)C4)C3)nc21 [Compound 182, 2-[1-(2,2-difluoroethyl)-1H-pyrazolo[3,4-b]pyrazin-6-yl]-6-[5-(trifluoromethyl)pyridin-2-yl]-2,6-diazaspiro[3.4]octane]
6 | 50 to 100 | FC(F)Cn1ncc2ncc(N3CC4(CCN(c5ccc(C(F)(F)F)nc5)C4)C3)nc21 [Compound 183, 2-[1-(2,2-difluoroethyl)-1H-pyrazolo[3,4-b]pyrazin-6-yl]-6-[6-(trifluoromethyl)pyridin-3-yl]-2,6-diazaspiro[3.4]octane]
7 | 10 to 50 | FC(F)Cn1ncc2ncc(N3CC4(CCN(c5cncc(C(F)(F)F)c5)C4)C3)nc21 [Compound 184, 2-[1-(2,2-difluoroethyl)-1H-pyrazolo[3,4-b]pyrazin-6-yl]-6-[5-(trifluoromethyl)pyridin-3-yl]-2,6-diazaspiro[3.4]octane]
8 | > 100 | FC(F)Cn1ncc2ncc(N3CC4(CCN(c5cccc(C(F)(F)F)n5)C4)C3)nc21 [Compound 185, 2-[1-(2,2-difluoroethyl)-1H-pyrazolo[3,4-b]pyrazin-6-yl]-6-[6-(trifluoromethyl)pyridin-2-yl]-2,6-diazaspiro[3.4]octane]
9 | 10 to 50 | FC(F)Cn1ncc2ncc(N3CCC4(CN(c5ccc(C(F)(F)F)cn5)C4)C3)nc21 [Compound 186, 6-[1-(2,2-difluoroethyl)-1H-pyrazolo[3,4-b]pyrazin-6-yl]-2-[5-(trifluoromethyl)pyridin-2-yl]-2,6-diazaspiro[3.4]octane]
10 | 10 to 50 | FC(F)Cn1ncc2ncc(N3CCC4(CN(c5cc(C(F)(F)F)ccn5)C4)C3)nc21 [Compound 187, 6-[1-(2,2-difluoroethyl)-1H-pyrazolo[3,4-b]pyrazin-6-yl]-2-[4-(trifluoromethyl)pyridin-2-yl]-2,6-diazaspiro[3.4]octane]
11 | > 100 | FC(F)Cn1ncc2ncc(N3CCC4(CCCN4c4ccnc(C(F)(F)F)c4)C3)nc21 (stereo not shown) [Compound 188, 7-[1-(2,2-difluoroethyl)-1H-pyrazolo[3,4-b]pyrazin-6-yl]-1-[2-(trifluoromethyl)pyridin-4-yl]-1,7-diazaspiro[4.4]nonane]
12 | < 10 | FC(F)Cn1ncc2ncc(NC3CCC4(C3)CN(c3ccc(C(F)(F)F)nc3)C4)nc21 (stereo not shown) [Compound 189, N-[1-(2,2-difluoroethyl)-1H-pyrazolo[3,4-b]pyrazin-6-yl]-2-[6-(trifluoromethyl)pyridin-3-yl]-2-azaspiro[3.4]octan-6-amine]
13 | < 10 | FC(F)Cn1ncc2ncc(NC3CCC4(C3)CN(c3cc(C(F)(F)F)ccn3)C4)nc21 (stereo not shown) [Compound 190, N-[1-(2,2-difluoroethyl)-1H-pyrazolo[3,4-b]pyrazin-6-yl]-2-[4-(trifluoromethyl)pyridin-2-yl]-2-azaspiro[3.4]octan-6-amine]
